Assay results: patent US20210322582A1, “RADIOACTIVE IMIDAZOTHIADIAZOLE DERIVATIVE COMPOUND” (Nihon Medi-Physics Co., Ltd., priority 2018, published 2021)

Tested on: HT-29 tumor
Assay: Biodistribution of [^111In]ITDA2 in HT-29 tumor cancer-bearing mouse
Assay type: in vivo
Settings: HT-29 tumor mouse
Protocol: HT-29 cells (5×10^6 cells/mouse) and MDA-MB-231 cells (1×10^7 cells/mouse) were subcutaneously inoculated into the left shoulders of 5-week old male BALB/c nude mice, respectively, and the mice were used when the tumor diameter reached 6 to 10 mm. A saline solution (100 μL) in which [^111In]ITDA2 (40 kBq) had been dissolved was administered to each of the HT-29 tumor or MDA-MB-231 tumor cancer-bearing mice (n=5) via the tail vein. The HT-29 tumor cancer-bearing mice were slaughtered after the lapse of 1, 4, 8, and 24 hours from the administration, the MDA-MB-231 tumor cancer-bearing mouse was slaughtered after the lapse of 24 hours from the administration, and the blood, spleen, pancreas, stomach, intestines, kidney, liver, heart, lungs, brain, tumor, and muscle were recovered from each of the mice. The weight of each organ was measured, and the amount of radioactivity in each organ was measured by using a gamma counter. The accumulation of radioactivity in each organ except for stomach was expressed by % injected dose/g organ obtained by dividing the ratio of the amount of radioactivity of each organ to the administered amount of radioactivity by the organ weight. The stomach was expressed by % injected dose.

- Biokinetics: Blood (1 hour): 0.27 ± 0.03 % injected dose/g organ
- Biokinetics: Brain (1 hour): 0.30 ± 0.04 % injected dose/g organ
- Biokinetics: Heart (1 hour): 5.64 ± 1.01 % injected dose/g organ
- Biokinetics: Intestines (1 hour): 11.24 ± 1.54 % injected dose/g organ
- Biokinetics: Kidney (1 hour): 137 ± 11.1 % injected dose/g organ
- Biokinetics: Liver (1 hour): 4.11 ± 0.54 % injected dose/g organ
- Biokinetics: Lungs (1 hour): 6.10 ± 0.97 % injected dose/g organ
- Biokinetics: Muscle (1 hour): 2.05 ± 0.61 % injected dose/g organ
- Biokinetics: Pancreas (1 hour): 20.01 ± 6.77 % injected dose/g organ
- Biokinetics: Spleen (1 hour): 0.40 ± 0.27 % injected dose/g organ
- Biokinetics: Stomach (1 hour): 3.99 ± 0.49 % injected dose
- Biokinetics: Tumor (1 hour): 2.11 ± 0.32 % injected dose/g organ
- Tumor/blood (1 hour): 7.78 ± 0.95
- Tumor/muscle (1 hour): 1.12 ± 0.45
- Biokinetics: Blood (4 hours): 0.18 ± 0.01 % injected dose/g organ
- Biokinetics: Brain (4 hours): 0.30 ± 0.04 % injected dose/g organ
- Biokinetics: Heart (4 hours): 2.81 ± 0.39 % injected dose/g organ
- Biokinetics: Intestines (4 hours): 15.32 ± 1.51 % injected dose/g organ
- Biokinetics: Kidney (4 hours): 143 ± 12.0 % injected dose/g organ
- Biokinetics: Liver (4 hours): 4.87 ± 1.08 % injected dose/g organ
- Biokinetics: Lungs (4 hours): 4.25 ± 0.76 % injected dose/g organ
- Biokinetics: Muscle (4 hours): 2.00 ± 0.21 % injected dose/g organ
- Biokinetics: Pancreas (4 hours): 20.88 ± 2.49 % injected dose/g organ
- Biokinetics: Spleen (4 hours): 0.13 ± 0.10 % injected dose/g organ
- Biokinetics: Stomach (4 hours): 5.09 ± 0.66 % injected dose
- Biokinetics: Tumor (4 hours): 2.47 ± 0.30 % injected dose/g organ
- Tumor/blood (4 hours): 13.85 ± 2.45
- Tumor/muscle (4 hours): 1.24 ± 0.19
- Biokinetics: Blood (8 hours): 0.20 ± 0.01 % injected dose/g organ
- Biokinetics: Brain (8 hours): 0.35 ± 0.05 % injected dose/g organ
- Biokinetics: Heart (8 hours): 1.89 ± 0.35 % injected dose/g organ
- Biokinetics: Intestines (8 hours): 15.40 ± 0.94 % injected dose/g organ
- Biokinetics: Kidney (8 hours): 110 ± 13.7 % injected dose/g organ
- Biokinetics: Liver (8 hours): 4.58 ± 0.76 % injected dose/g organ
- Biokinetics: Lungs (8 hours): 2.87 ± 1.08 % injected dose/g organ
- Biokinetics: Muscle (8 hours): 1.39 ± 0.20 % injected dose/g organ
- Biokinetics: Pancreas (8 hours): 13.15 ± 4.17 % injected dose/g organ
- Biokinetics: Spleen (8 hours): 0.32 ± 0.20 % injected dose/g organ
- Biokinetics: Stomach (8 hours): 6.78 ± 0.95 % injected dose
- Biokinetics: Tumor (8 hours): 3.10 ± 0.35 % injected dose/g organ
- Tumor/blood (8 hours): 15.31 ± 1.69
- Tumor/muscle (8 hours): 2.28 ± 0.39
- Biokinetics: Blood (24 hours): 0.26 ± 0.02 % injected dose/g organ
- Biokinetics: Brain (24 hours): 0.37 ± 0.09 % injected dose/g organ
- Biokinetics: Heart (24 hours): 1.58 ± 0.42 % injected dose/g organ
- Biokinetics: Intestines (24 hours): 11.14 ± 2.06 % injected dose/g organ
- Biokinetics: Kidney (24 hours): 76.4 ± 17.2 % injected dose/g organ
- Biokinetics: Liver (24 hours): 3.50 ± 0.81 % injected dose/g organ
- Biokinetics: Lungs (24 hours): 2.15 ± 0.49 % injected dose/g organ
- Biokinetics: Muscle (24 hours): 1.00 ± 0.25 % injected dose/g organ
- Biokinetics: Pancreas (24 hours): 7.23 ± 1.40 % injected dose/g organ
- Biokinetics: Spleen (24 hours): 0.27 ± 0.13 % injected dose/g organ
- Biokinetics: Stomach (24 hours): 9.33 ± 0.72 % injected dose
- Biokinetics: Tumor (24 hours): 5.93 ± 0.88 % injected dose/g organ
- Tumor/blood (24 hours): 22.63 ± 3.31
- Tumor/muscle (24 hours): 6.18 ± 1.45
SMILES: NS(=O)(=O)c1nn2cc(-c3ccc(NC(=O)CN4CCN(CC(=O)O)CCN(CC(=O)Nc5ccc(-c6cn7nc(S(N)(=O)=O)sc7n6)cc5)CCN(CC(=O)O)CC4)cc3)nc2s1.[111In+3] [[^111In]ITDA2, [^111In]indium(III)2,2′-(4,10-bis(2-oxo-2-((4-(2-sulfamoylimidazo[2,1-b][1,3,4]thiadiazol-6-yl)phenyl)amino)ethyl)-1,4,7,10-tetraazacyclododecan-1,7-diyl) diacetic acid]
